We go through two compounds from patent publication US20070117868A1, “Use of n-arylhydrazine derivatives for combating non-crop pests” (priority 2004, published 2007).

Format in all cases: in vivo
For test [1], the system named is Camponotus floridanus. The test can be described thus: Activity via glass contact, carpenter ant. As to conditions: rate 10 ppm. The protocol:
(§1) 1. Activity Against Argentine Ant, Harvester Ant, Acrobat Ant, Carpenter Ant, Fire Ant, House Fly, Stable Fly, Flesh Fly, Yellowfever Mosquito, House Mosquito, Malaria Mosquito, German Cockroach, Cat Flea, and Brown Dog Tick Via Glass Contact
(§2) Glass vials (20 ml scintillation vials) were treated with 0.5 ml of a solution of active ingredient in acetone. Each vial was rolled uncapped for ca. 10 minutes to allow the a.i. to completely coat the vial and to allow for full drying of the acetone. Insects or ticks were placed into each vial.

In test [2] the test system is Solenopsis invicta. Description: Activity via glass contact, fire ant. The settings on record: rate 10 ppm. The protocol:
as §1, §2

Test [3] concerns Musca domestica. The test can be described thus: Activity via glass contact, house fly. The settings on record: rate 10 ppm. The protocol: as §1, §2
The next test deals with Stomoxys calcitrans. Description: Activity via glass contact, stable fly. The settings on record: rate 10 ppm. The protocol: as §1, §2
Another test concerns Sarcophaga sp. The test can be described thus: Activity via glass contact, flesh fly. The settings on record: rate 10 ppm. The protocol: as §1, §2
Test [4] has as its system Aedes aegypti. The test can be described thus: Activity via glass contact, yellowfever mosquito. As to conditions: rate 10 ppm. The protocol:
as §1, §2

Test [5] concerns Culex quinquefasciatus. Description: Activity via glass contact, house mosquito. The settings on record: rate 0.5 ppm. The protocol: as §1, §2
For test [6], the system named is Anopheles albimanus. Description: Activity via glass contact, malaria mosquito. As to conditions: rate 1 ppm. The protocol: as §1, §2
In a further test the test system is Ctenocephalides felis. Description: Activity via glass contact, cat flea. As to conditions: rate 100 ppm. The protocol: as §1, §2
Another test relates to Crematogaster spp. Description: Activity via soil contact, acrobat ant. As to conditions: rate 0.01 w %. The protocol: (§3) 2. Activity Against Argentine Ant, Acrobat Ant, Carpenter Ant, Fire Ant, and Eastern Subterranean Termite Via Soil Contact
(§4) For ants, tests were conducted in Petri dishes. A thin layer of 1% agar in water was dispensed into the dishes and Florida sandy soil was spread over the agar (5 g for the small dishes and 11 g for the larger dishes). The active ingredient was dissolved in acetone and dispensed over the sand. Dishes were vented to evaporate the acetone, infested with ants, and covered. A 20% honey water solution was placed in each dish. The dishes were maintained at 22° C. and observed for mortality at various time intervals.

The subject of test [7] is Camponotus floridanus. Description: Activity via soil contact, carpenter ant. As to conditions: rate 0.01 w %. The protocol: as §3, §4
Test [8] has as its system Solenopsis invicta. Description: Activity via soil contact, fire ant. As to conditions: rate 0.01 w %. The protocol: as §3, §4
The subject of test [9] is Solenopsis invicta. The test can be described thus: Activity via bait (corn grit), fire ant. As to conditions: rate 0.7 w %. The protocol:
(§5) 3. Activity Against Argentine Ant, Acrobat Ant, Carpenter Ant, Fire Ant, House Fly, Eastern Subterranean Termite, Formosan Subterranean Termite, and German Cockroach Via Bait
For the fire ants, corn grit was used as a bait matrix. […] Petri dishes were supplied with a water source. Fire ant adults were placed into each dish. The next day, 250 mg of bait in bait containers was placed into the dishes.

For test [10], the system named is Musca domestica. Description: Activity via bait, house fly. As to conditions: rate 0.1 w %. The protocol:
as §5
For house flies. Bait tests were conducted with adults aged 2-5 days post-emergence. Active ingredient in acetone was applied to a bait matrix consisting of a 1:1 mixture of powdered milk and sugar which was then allowed to dry. Assays were conducted in jars with 250 mg of bait in a pan placed in the bottom of each jar. House flies were placed into the bait jars which were covered. The test jars were held at 22° C.

Another test has as its system Coptotermes formosanus. Description: Activity via bait (treated filter paper), Formosan termite. As to conditions: rate 0.1 w %. The protocol:
as §5
For termites, active ingredient in acetone was applied to filter papers. % a.i. were calculated on basis of the weight of the filter paper. Acetone only was applied for untreated controls. Treated papers were vented to evaporate the acetone, moistened with […], and placed Petri dishes with sand. Water was added during the test as needed. Bioassays were conducted with one treated filter and ca. 30 termite workers per test dish. Test dishes were maintained at 25° C. and appr. 85% relative humidity and observed daily for mortality (dead or moribund insects) or intoxication. Dead or moribund insects were removed daily.

For test [11], the system named is Aedes aegypti. Description: Activity via water treatment, yellowfever mosquito larvae. As to conditions: rate 10 ppm. The protocol: (§6) 4. Activity Against Yellowfever Mosquito, Southern House Mosquito, and Malaria Mosquito Larvae Via Water Treatment
(§7) Well plates were used as test arenas. The active ingredient was dissolved in acetone and diluted with water to obtain the concentrations needed. The final solutions containing appr. 1% acetone were placed into each well. Approximately 10 mosquito larvae (4th-instars) in 1 ml water were added to each well. Larvae were fed one drop of liver powder each day. The dishes were covered and maintained at 22° C. Mortality was recorded daily and dead larvae and live or dead pupae were removed daily. At the end of the test remaining live larvae were recorded and percent mortality was calculated.

In test [12] the test system is Culex quinquefasciatus. Description: Activity via water treatment, house mosquito larvae. The settings on record: rate 10 ppm. The protocol:
as §6, §7

Test [13] deals with Anopheles albimanus. Description: Activity via water treatment, malaria mosquito larvae. As to conditions: rate 1.0 ppm. The protocol:
as §6, §7

With `CCN/C(=N\Nc1c(Cl)cc(C(F)(F)F)cc1Cl)C(C)(C)C` [Compound I-1, N-ethyl-2,2-dimethylpropionamide-2-(2,6-dichloro-α,α,α-trifluoro-p-tolyl)-hydrazone], the “Days or Hours to achieve 100% mortality” value stood at 1 days in the test with Camponotus floridanus [1]; 4 h with Solenopsis invicta [2]; 4 h in the test on Musca domestica [3]; 4 h in the test with Stomoxys calcitrans; 4 h in the test with Sarcophaga sp.; 4 h in the test on Aedes aegypti [4]. In addition, the “Days or Hours to achieve 100% mortality” value stood at 4 h in the test on Culex quinquefasciatus [5]; 1 days in the test with Anopheles albimanus [6]; 2 days in the test with Ctenocephalides felis; 2 days in the test with Crematogaster spp.; 1 days in the test on Camponotus floridanus [7]; 1 days in the test on Solenopsis invicta [8]. For the same compound, the “Days or Hours to achieve 100% mortality” value in the test on Solenopsis invicta [9] was found to be 3 days; in the test with Musca domestica [10], 3 h; in the test on Coptotermes formosanus it was 5 days; with Aedes aegypti [11], 2 days; with Culex quinquefasciatus [12], 1 days; with Anopheles albimanus [13], 1 days.

Consider `CCN/C(=N\Nc1c(Cl)cc(C(F)(F)F)cc1Cl)C1(C)CC1(Cl)Cl` (stereo not drawn) [Compound I-2, N-Ethyl-2,2-dichloro-1-methylcyclopropanecarboxamide-2-(2,6-dichloro-α,α,α-tri-fluoro-p-tolyl)hydrazone], for which the “Days or Hours to achieve 100% mortality” value with Camponotus floridanus [1] was 1 days; in the test on Solenopsis invicta [2] it was 4 h; in the test with Musca domestica [3], 4 h; with Stomoxys calcitrans it was 4 h; in the test on Sarcophaga sp., 4 h; in the test on Aedes aegypti [4], 4 h. The “Days or Hours to achieve 100% mortality” value worked out at 4 h in the test on Culex quinquefasciatus [5]; 1 days in the test with Anopheles albimanus [6]; 2 days in the test with Ctenocephalides felis; 2 days in the test with Crematogaster spp.; 1 days in the test on Camponotus floridanus [7]; 1 days in the test with Solenopsis invicta [8]. Besides, the “Days or Hours to achieve 100% mortality” value in the test on Solenopsis invicta [9] was determined as 3 days; with Musca domestica [10] it was 3 h; in the test with Coptotermes formosanus, 5 days; in the test on Aedes aegypti [11] it was 2 days; in the test with Culex quinquefasciatus [12], 1 days; in the test with Anopheles albimanus [13] it was 1 days.
